molecular target: Cezanne 1 (Homo sapiens (Human), UniProt Q6GQQ9); assay: Cezanne 1 biochemical IC50 assay (fluorescence polarisation, TAMRA labelled peptide linked to ubiquitin); settings: not given
Procedure: The Cezanne 1 construct was PCR amplified and cloned into a pFLAG-CMV-6c vector (Sigma-Aldrich) with an N-terminal FLAG tag. HEK293T cells were transfected with FLAG-Cezanne 1 using TransIT-LT1 transfection reagent (Mirus) according to the manufacturer's instructions. Cells were harvested 48 hours after transfection. […] The resin was washed two times with low salt buffer and one time with high salt buffer (20 mM Tris, pH 7.5, 500 mM NaCl, 0.5 mM EDTA, 5 mM beta-mercaptoethanol, protease inhibitors (complete mini, Roche) and phosphatase inhibitors (PhosSTOP mini, Roche). To elute the bound Cezanne 1, elution buffer (10 mM Tris, pH 7.5, 150 mM NaCl, 0.5 mM EDTA, 10% glycerol, 0.5% NP40, 5 mM beta-mercaptoethanol, 0.15 mg/ml 3× FLAG peptide (Sigma-Aldrich)) was added to the resin and incubated at 4° C. for 2.5 hours while rotating. The resin was centrifuged at 4000 rpm for 30 seconds, and the supernatant containing purified FLAG-Cezanne 1 was removed and stored at −80° C. […] Dilution plates were prepared at 21 times the final concentration (2100 μM for a final concentration of 100 μM) in 50% DMSO in a 96-well polypropylene V-bottom plate (Greiner #651201). […] Reactions were performed in duplicate in black 384 well plates (small volume, Greiner 784076) in a final reaction volume of 21 μl. Either 1 μl of 50% DMSO or diluted compound was added to the plate. Cezanne 1 was diluted in reaction buffer (40 mM Tris, pH 7.5, 0.005% Tween 20, 0.5 mg/ml BSA, 5 mM—beta-mercaptoethanol) to the equivalent of 0.005 μl/well and 10 μl of diluted Cezanne 1 was added to the compound. Enzyme and compound were incubated for 30 min at room temp. Reactions were initiated by the addition of 50 nM of TAMRA labelled peptide linked to ubiquitin via an iso-peptide bond as fluorescence polarisation substrate. Reactions were read immediately after addition of substrate and following a 2 hr incubation at room temperature. Readings were performed on a Pherastar Plus (BMG Labtech). λ Excitation 540 nm; λ Emission 590 nm.

Sequence of Cezanne 1 (Q6GQQ9 whole entry): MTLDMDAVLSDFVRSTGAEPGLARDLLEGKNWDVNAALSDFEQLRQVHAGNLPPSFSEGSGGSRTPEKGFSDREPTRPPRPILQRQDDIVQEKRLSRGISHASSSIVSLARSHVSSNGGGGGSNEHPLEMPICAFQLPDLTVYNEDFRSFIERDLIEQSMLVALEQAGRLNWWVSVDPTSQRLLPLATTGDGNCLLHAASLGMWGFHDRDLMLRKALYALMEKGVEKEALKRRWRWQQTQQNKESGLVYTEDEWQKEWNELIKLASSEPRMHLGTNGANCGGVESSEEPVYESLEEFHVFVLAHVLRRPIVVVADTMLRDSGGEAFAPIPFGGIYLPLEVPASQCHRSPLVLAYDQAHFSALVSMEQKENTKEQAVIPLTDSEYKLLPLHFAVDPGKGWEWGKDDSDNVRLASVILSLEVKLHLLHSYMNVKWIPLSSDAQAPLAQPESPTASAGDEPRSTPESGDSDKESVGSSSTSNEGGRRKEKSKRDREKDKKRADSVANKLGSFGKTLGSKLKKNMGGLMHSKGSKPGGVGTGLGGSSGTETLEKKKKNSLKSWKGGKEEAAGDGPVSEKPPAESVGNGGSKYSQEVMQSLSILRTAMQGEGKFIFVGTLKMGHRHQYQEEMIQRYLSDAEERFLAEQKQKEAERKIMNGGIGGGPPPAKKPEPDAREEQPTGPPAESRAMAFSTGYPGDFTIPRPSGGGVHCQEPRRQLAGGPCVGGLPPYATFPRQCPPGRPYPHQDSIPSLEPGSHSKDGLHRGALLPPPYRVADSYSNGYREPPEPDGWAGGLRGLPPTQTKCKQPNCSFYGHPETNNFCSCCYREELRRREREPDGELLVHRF

Q: With `N#CN1CCC2(Cc3ccc(Cl)cc3NC2=O)C1` (stereo not drawn) [Example 2, 7′-Chloro-2′-oxo-1′,4′-dihydro-2′H-spiro[pyrrolidine-3,3′-quinoline]-1-carbonitrile] as the compound, how does the IC50 read?
A: 1000 to 10000 nM

Q: `COc1ccc2c(c1)NC(=O)C1(CCN(C#N)C1)C2` (stereo not drawn) [Example 3, 7′-Methoxy-2′-oxo-1′,4′-dihydro-2′H-spiro[pyrrolidine-3,3′-quinoline]-1-carbonitrile] was tested. Which IC50 did it give?
A: 1000 to 10000 nM

Q: Which IC50 does the source give for `N#CN1CCC2(Cc3ccc(-c4ccc(-c5ccccc5)cc4)cc3NC2=O)C1` (stereo not drawn) [Example 6, 7′-([1,1′-Biphenyl]-4-yl)-2′-oxo-1′,4′-dihydro-2′H-spiro[pyrrolidine-3,3′-quinoline]-1-carbonitrile] here?
A: 1000 to 10000 nM

same assay, conditions: Cezanne 1 biochemical IC50 assay; 30 min pre-incubation, read after 2 hr at room temperature; read-out: IC50 range

Q: How did the IC50 turn out when `CC1CC2(CCN(C#N)C2)C(=O)N1` (single isomer, unassigned) [Example 82, 8-Methyl-6-oxo-2,7-diazaspiro[4.4]nonane-2-carbonitrile] was run?
A: > 10000 nM

Q: For `CC1CC2(CCN(C#N)C2)C(=O)N1` (single isomer, unassigned) [Example 83, 8-Methyl-6-oxo-2,7-diazaspiro[4.4]nonane-2-carbonitrile], which IC50 is on record?
A: > 10000 nM

Q: How did the IC50 turn out when `N#CN1CCC2(CC(c3ccccc3)NC2=O)C1` (single isomer, unassigned) [Example 84, 6-Oxo-8-phenyl-2,7-diazaspiro[4.4]nonane-2-carbonitrile] was run?
A: > 10000 nM

Q: For `N#CN1CCC2(Cc3ccccc3NC2=O)C1` (stereo not drawn) [Example 1, 2′-Oxo-1′,4′-dihydro-2′H-spiro[pyrrolidine-3,3′-quinoline]-1-carbonitrile], which IC50 is on record?
A: 1000 to 10000 nM

Q: `N#CN1CCC2(Cc3ccc(-c4ccccc4)cc3NC2=O)C1` (stereo not drawn) [Example 4, 2′-Oxo-7′-phenyl-1′,4′-dihydro-2′H-spiro[pyrrolidine-3,3′-quinoline]-1-carbonitrile] was tested. Which IC50 did it give?
A: 1000 to 10000 nM

Q: Which IC50 does the source give for `COc1ccc(C(C)C)cc1-c1ccc2c(c1)NC(=O)C1(CCN(C#N)C1)C2` (stereo not drawn) [Example 5, 7′-(5-Isopropyl-2-methoxyphenyl)-2′-oxo-1′,4′-dihydro-2′H-spiro[pyrrolidine-3,3′-quinoline]-1-carbonitrile] here?
A: 1000 to 10000 nM

Q: With `N#CN1CCC2(Cc3ccc(-c4ccc(Oc5ccccc5)cc4)cc3NC2=O)C1` (stereo not drawn) [Example 11, 2′-Oxo-7′-(4-phenoxyphenyl)-1′,4′-dihydro-2′H-spiro[pyrrolidine-3,3′-quinoline]-1-carbonitrile] as the compound, how does the IC50 read?
A: 1000 to 10000 nM

Q: Which IC50 does the source give for `Cn1cc(-c2ccc3c(c2)NC(=O)C2(CCN(C#N)C2)C3)cn1` (stereo not drawn) [Example 12, 7′-(1-Methyl-1H-pyrazol-4-yl)-2′-oxo-1′,4′-dihydro-2′H-spiro[pyrrolidine-3,3′-quinoline]-1-carbonitrile] here?
A: 1000 to 10000 nM

Q: With `N#Cc1ccc(-c2ccc3c(c2)NC(=O)C2(CCN(C#N)C2)C3)cc1` (stereo not drawn) [Example 13, 7′-(4-Cyanophenyl)-2′-oxo-1′,4′-dihydro-2′H-spiro[pyrrolidine-3,3′-quinoline]-1-carbonitrile] as the compound, how does the IC50 read?
A: 1000 to 10000 nM

Q: How did the IC50 turn out when `N#CN1CCC2(Cc3ccc(-c4cc(OC(F)(F)F)ccc4Cl)cc3NC2=O)C1` (stereo not drawn) [Example 14, 7′-(2-Chloro-5-(trifluoromethoxy)phenyl)-2′-oxo-1′,4′-dihydro-2′H-spiro[pyrrolidine-3,3′-quinoline]-1-carbonitrile] was run?
A: 1000 to 10000 nM

Q: How did the IC50 turn out when `CNC(=O)c1ccc(-c2ccc3c(c2)NC(=O)C2(CCN(C#N)C2)C3)cn1` (stereo not drawn) [Example 15, 5-(1-Cyano-2′-oxo-1′,4′-dihydro-2′H-spiro[pyrrolidine-3,3′-quinolin]-7′-yl)-N-methylpicolinamide] was run?
A: 1000 to 10000 nM

Q: With `CNC(=O)c1ccc(-c2ccc3c(c2)NC(=O)C2(CCN(C#N)C2)C3)cc1` (stereo not drawn) [Example 17, 4-(1-Cyano-2′-oxo-1′,4′-dihydro-2′H-spiro[pyrrolidine-3,3′-quinolin]-7′-yl)-N-methylbenzamide] as the compound, how does the IC50 read?
A: 1000 to 10000 nM

Q: How did the IC50 turn out when `CN1CCN(c2ccc(-c3ccc4c(c3)NC(=O)C3(CCN(C#N)C3)C4)cc2)CC1` (stereo not drawn) [Example 19, 7′-(4-(4-Methylpiperazin-1-yl)phenyl)-2′-oxo-1′,4′-dihydro-2′H-spiro[pyrrolidine-3,3′-quinoline]-1-carbonitrile] was run?
A: 100 to 1000 nM

Q: With `CC(C)Oc1ccc(F)cc1-c1ccc2c(c1)NC(=O)C1(CCN(C#N)C1)C2` (stereo not drawn) [Example 21, 7′-(5-Fluoro-2-isopropoxyphenyl)-2′-oxo-1′,4′-dihydro-2′H-spiro[pyrrolidine-3,3′-quinoline]-1-carbonitrile] as the compound, how does the IC50 read?
A: 100 to 1000 nM

Q: For `CN1CCN(C(=O)c2ccc(-c3ccc4c(c3)NC(=O)C3(CCN(C#N)C3)C4)cc2)CC1` (stereo not drawn) [Example 23, 7′-(4-(4-Methylpiperazine-1-carbonyl)phenyl)-2′-oxo-1′,4′-dihydro-2′H-spiro[pyrrolidine-3,3′-quinoline]-1-carbonitrile], which IC50 is on record?
A: 100 to 1000 nM

Q: With `Cn1ncc2cc(-c3ccc4c(c3)NC(=O)C3(CCN(C#N)C3)C4)ccc21` (stereo not drawn) [Example 24, 7′-(1-Methyl-1H-indazol-5-yl)-2′-oxo-1′,4′-dihydro-2′H-spiro[pyrrolidine-3,3′-quinoline]-1-carbonitrile] as the compound, how does the IC50 read?
A: < 100 nM

Q: For `Cc1ccc2[nH]ncc2c1-c1ccc2c(c1)NC(=O)C1(CCN(C#N)C1)C2` (stereo not drawn) [Example 25, 7′-(5-Methyl-1H-indazol-4-yl)-2′-oxo-1′,4′-dihydro-2′H-spiro[pyrrolidine-3,3′-quinoline]-1-carbonitrile], which IC50 is on record?
A: 100 to 1000 nM

Q: How did the IC50 turn out when `N#CN1CCC2(Cc3ccc(-c4cccc(NS(=O)(=O)C5CC5)c4)cc3NC2=O)C1` (stereo not drawn) [Example 26, N-(3-(1-Cyano-2′-oxo-1′,4′-dihydro-2′H-spiro[pyrrolidine-3,3′-quinolin]-7′-yl)phenyl)cyclopropanesulfonamide] was run?
A: 100 to 1000 nM

Q: How did the IC50 turn out when `Cc1n[nH]cc1-c1ccc2c(c1)NC(=O)C1(CCN(C#N)C1)C2` (stereo not drawn) [Example 27, 7′-(3-Methyl-1H-pyrazol-4-yl)-2′-oxo-1′,4′-dihydro-2′H-spiro[pyrrolidine-3,3′-quinoline]-1-carbonitrile] was run?
A: 1000 to 10000 nM

Q: With `N#CN1CCC2(Cc3ccc(-c4cncnc4)cc3NC2=O)C1` (stereo not drawn) [Example 28, 2′-Oxo-7′-(pyrimidin-5-yl)-1′,4′-dihydro-2′H-spiro[pyrrolidine-3,3′-quinoline]-1-carbonitrile] as the compound, how does the IC50 read?
A: 100 to 1000 nM

Q: `CC(=O)Nc1cccc(-c2ccc3c(c2)NC(=O)C2(CCN(C#N)C2)C3)c1` (stereo not drawn) [Example 29, N-(3-(1-Cyano-2′-oxo-1′,4′-dihydro-2′H-spiro[pyrrolidine-3,3′-quinolin]-7′-yl)phenyl)acetamide] was tested. Which IC50 did it give?
A: 1000 to 10000 nM

Q: How did the IC50 turn out when `CN(C)C(=O)c1cccc(-c2ccc3c(c2)NC(=O)C2(CCN(C#N)C2)C3)c1` (stereo not drawn) [Example 30, 3-(1-Cyano-2′-oxo-1′,4′-dihydro-2′H-spiro[pyrrolidine-3,3′-quinolin]-7′-yl)-N,N-dimethylbenzamide] was run?
A: 100 to 1000 nM

Q: Which IC50 does the source give for `CC(=O)Nc1ccc(-c2ccc3c(c2)NC(=O)C2(CCN(C#N)C2)C3)cc1` (stereo not drawn) [Example 31, N-(4-(1-Cyano-2′-oxo-1′,4′-dihydro-2′H-spiro[pyrrolidine-3,3′-quinolin]-7′-yl)phenyl)acetamide] here?
A: 1000 to 10000 nM

Q: With `N#CN1CCC2(Cc3ccc(-c4ccc(S(=O)(=O)N5CCOCC5)cc4)cc3NC2=O)C1` (stereo not drawn) [Example 32, 7′-(4-(Morpholinosulfonyl)phenyl)-2′-oxo-1′,4′-dihydro-2′H-spiro[pyrrolidine-3,3′-quinoline]-1-carbonitrile] as the compound, how does the IC50 read?
A: 1000 to 10000 nM

Q: Which IC50 does the source give for `Cc1n[nH]c(C)c1-c1ccc2c(c1)NC(=O)C1(CCN(C#N)C1)C2` (stereo not drawn) [Example 33, 7′-(3,5-Dimethyl-1H-pyrazol-4-yl)-2′-oxo-1′,4′-dihydro-2′H-spiro[pyrrolidine-3,3′-quinoline]-1-carbonitrile] here?
A: 1000 to 10000 nM

Q: For `Cc1cc(-c2ccc3c(c2)NC(=O)C2(CCN(C#N)C2)C3)ccn1` (stereo not drawn) [Example 34, 7′-(2-Methylpyridin-4-yl)-2′-oxo-1′,4′-dihydro-2′H-spiro[pyrrolidine-3,3′-quinoline]-1-carbonitrile], which IC50 is on record?
A: 1000 to 10000 nM

Q: For `N#CN1CCC2(Cc3ccc(-c4cccc(N5CCCCC5)c4)cc3NC2=O)C1` (stereo not drawn) [Example 35, 2′-Oxo-7′-(3-(piperidin-1-yl)phenyl)-1′,4′-dihydro-2′H-spiro[pyrrolidine-3,3′-quinoline]-1-carbonitrile], which IC50 is on record?
A: 1000 to 10000 nM

Q: How did the IC50 turn out when `CC(=O)Nc1ccccc1-c1ccc2c(c1)NC(=O)C1(CCN(C#N)C1)C2` (stereo not drawn) [Example 36, N-(2-(1-Cyano-2′-oxo-1′,4′-dihydro-2′H-spiro[pyrrolidine-3,3′-quinolin]-7′-yl)phenyl)acetamide] was run?
A: 100 to 1000 nM

Q: For `N#CN1CCC2(Cc3ccc(-c4ccc(C(=O)N5CCOCC5)cc4)cc3NC2=O)C1` (stereo not drawn) [Example 37, 7′-(4-(Morpholine-4-carbonyl)phenyl)-2′-oxo-1′,4′-dihydro-2′H-spiro[pyrrolidine-3,3′-quinoline]-1-carbonitrile], which IC50 is on record?
A: 1000 to 10000 nM

Q: `N#CN1CCC2(Cc3ccc(-c4cccc(S(=O)(=O)N5CCOCC5)c4)cc3NC2=O)C1` (stereo not drawn) [Example 38, 7′-(3-(Morpholinosulfonyl)phenyl)-2′-oxo-1′,4′-dihydro-2′H-spiro[pyrrolidine-3,3′-quinoline]-1-carbonitrile] was tested. Which IC50 did it give?
A: 1000 to 10000 nM
